Assay [1] concerns the target human MMP-1 (Homo sapiens (Human), UniProt P03956). Nature of the assay: MMP-1 inhibition test. Type of assay: biochemical. As to conditions: read-out: MMPs IC50 MMP-1. The protocol: (§1) MMP inhibition tests can be carried out, for example, using a fluorescent synthetic substrate based on the methods described in Bickett et al. (D. Mark Bickett et al., Anal. Biochem., 1993, 212, 58-64) and Nagase et al. (H. Nagase et al., J. Biol. Chem., 1994, 269, 20952-20957). The method for each MMP inhibition test is shown below.
180 μL (100 ng) of human MMP-1 (Calbiochem #444208) was mixed with 20 μL of 10 mM p-amino phenyl mercuric acetate (APMA), and activated by reacting at 37° C. for 1 hour. 20 μL of the resultant enzyme solution was diluted to 90 μL with an assay buffer A. The mixture was added to 90 μL of a 20 μM fluorescent substrate (Dnp-Pro-Cha(β-cyclohexylalanyl)-Gly-Cys(Me)-His-Ala-Lys(Nma)-NH2) (SEQ ID NO: 2) prepared with an assay buffer B, and reacted at 37° C. for 5 hours. Enzyme activity was then determined by measuring with a fluorescence intensity meter (Labsystems, Fluoroskan Ascent) at an excitation wavelength of 355 nm and a measurement wavelength of 460 nm.
(§2) From the enzyme activity in the presence or the absence of the test substance, the inhibition rate was determined, and the 50% inhibitiory concentration (IC50) of the test substance was calculated.

Assay [2] concerns the target human MMP-8 (Homo sapiens (Human), UniProt P22894). Nature of the assay: MMP-8 inhibition test. Type of assay: biochemical. Particulars: read-out: MMPs IC50 MMP-8. On the procedure: as §1
90 μL (29 ng) of human MMP-8 (Calbiochem #444229) was mixed with 10 μL of 10 mM APMA, and activated by reacting at 37° C. for 1 hour. 10 μL of the resultant enzyme solution was diluted to 90 μL with an assay buffer A. The mixture was added to 90 μL of a 20 μM fluorescent substrate (MOCAc-Pro-Leu-Gly-Leu-A2pr(Dnp)-Ala-Arg-NH2, Peptide Institute Inc., #3163-v) (SEQ ID NO: 3) prepared with an assay buffer B, and reacted at 37° C. for 5 hours. Enzyme activity was then determined by measuring with a fluorescence intensity meter (Labsystems, Fluoroskan Ascent) at an excitation wavelength of 320 nm and a measurement wavelength of 405 nm.
as §2

In assay [3] the target is human MMP-9 (Homo sapiens (Human), UniProt P14780). The assay can be described thus: MMP-9 inhibition test. The class given is biochemical. Particulars: read-out: MMPs IC50 MMP-9. On the procedure:
as §1
90 μL (11 ng) of human MMP-9 (Calbiochem #444231) was mixed with 10 μL of 10 mM APMA, and activated by reacting at 37° C. for 2 hours. 10 μL of the resultant enzyme solution was diluted to 90 μL with an assay buffer A. The mixture was added to 90 μL of a 20 μM fluorescent substrate (Dnp-Pro-Cha-Gly-Cys(Me)-His-Ala-Lys(Nma)-NH2) (SEQ ID NO: 2) prepared with an assay buffer B, and reacted at 37° C. for 4 hours. Enzyme activity was then determined by measuring with a fluorescence intensity meter (Labsystems, Fluoroskan Ascent) at an excitation wavelength of 355 nm and a measurement wavelength of 460 nm.
as §2

For assay [4], the target named is human MMP-14 (Homo sapiens (Human), UniProt P50281). Nature of the assay: MMP-14 inhibition test. The class given is biochemical. As to conditions: read-out: MMPs IC50 MMP-14. The protocol:
as §1
90 μL (1.9 ng) of human MMP-14 (Calbiochem #475935) prepared with an assay buffer A was added to 90 μL of a 20 μM fluorescent substrate (Dnp-Pro-Cha-Gly-Cys(Me)-His-Ala-Lys(Nma)-NH2) (SEQ ID NO: 2) prepared with an assay buffer B, and reacted at 37° C. for 5 hours. Enzyme activity was then determined by measuring with a fluorescence intensity meter (Labsystems, Fluoroskan Ascent) at an excitation wavelength of 355 nm and a measurement wavelength of 460 nm.
as §2

Assay [5] has as its target human MMP-17 (Homo sapiens, UniProt Q9ULZ9). The assay can be described thus: MMP-17 inhibition test. Type of assay: biochemical. As to conditions: read-out: MMPs IC50 MMP-17. The protocol:
as §1
90 μL (5.8 ng) of human MMP-17 (Calbiochem #475940) prepared with an assay buffer A was added to 90 μL of a 20 μM fluorescent substrate (MOCAc-Pro-Leu-Gly-Leu-A2pr(Dnp)-Ala-Arg-NH2, Peptide Institute Inc., #3163-v) (SEQ ID NO: 3) prepared with an assay buffer B, and reacted at room temperature for 5 hours. Enzyme activity was then determined by measuring with a fluorescence intensity meter (Labsystems, Fluoroskan Ascent) at an excitation wavelength of 320 nm and a measurement wavelength of 405 nm.
as §2

Assay [6] deals with auricular oedema induced by TPA in BALB/c mice. Nature of the assay: Inhibition test of auricular oedema induced by single application of TPA in mouse. Particulars: 1 w/v % solution applied topically to ear 1 hour before TPA, auricle thickness 6 hours after TPA, read-out: Auricular oedema inhibition rate (%). The class given is in vivo. On the procedure: Inhibition Test of Auricular Oedema Induced by Single Application of TPA (12-O-tetradecanoylphorbol-13-acetate) in Mouse (In Vivo Efficacy Test Based on TNF-α-Related Cutaneous Inflammation)
Auricular oedema was induced by applying 54 μmol/L TPA-acetone solution on both the inner and outer sides of the left ear of BALB/c mice (application volume of 54 μmol/L TPA-acetone solution is 10 μL for each side of the left ear (i.e. 1.08 nmol TPA/auricle)). For a non-induced group, acetone was similarly applied instead of the 54 μmol/L TPA-acetone solution. The test substance was dissolved and prepared in a 1 w/v % solution of acetone containing 10 vol % DMSO (topical administration vehicle), then the test solution was applied onto both the inner and outer sides of the left ear of the mice (application volume of this test solution is 10 μL for each side of the left ear) 1 hour before the TPA application. For a control group, the topical administration vehicle was similarly applied instead of the test substance solution. For an etanercept group, 0.2 mL of a 5 mg/mL etanercept solution was intravenously administered (1 mg/mouse) the day before TPA application and 1.5 hours before TPA application. For a human IgG (hIgG) group (etanercept control group), 0.2 mL of a 5 mg/mL hIgG solution was intravenously administered (1 mg/mouse). Auricle thickness was measured under ether anesthesia the day before TPA application and 6 hours after TPA application for evaluation of the auricular oedema inhibition effect of the test substance based on the increase in auricle thickness as an index.
The auricular oedema inhibition rate (%) of the test substance was calculated based on the following formula using (A) the average value of the increase in auricular thickness of the group administered with the test substance, (B) the average value of the increase in auricular thickness of the non-induced group, and (C) the average value of the increase in auricular thickness of the control group. […]

The source of these data is patent US10000476B2, “Pyridone derivative, pharmaceutical containing the same and methods of use thereof” (KAKEN PHARMACEUTICAL CO., LTD., priority 2011, dated 2018).

Sequence of human MMP-1 (P03956 100-469): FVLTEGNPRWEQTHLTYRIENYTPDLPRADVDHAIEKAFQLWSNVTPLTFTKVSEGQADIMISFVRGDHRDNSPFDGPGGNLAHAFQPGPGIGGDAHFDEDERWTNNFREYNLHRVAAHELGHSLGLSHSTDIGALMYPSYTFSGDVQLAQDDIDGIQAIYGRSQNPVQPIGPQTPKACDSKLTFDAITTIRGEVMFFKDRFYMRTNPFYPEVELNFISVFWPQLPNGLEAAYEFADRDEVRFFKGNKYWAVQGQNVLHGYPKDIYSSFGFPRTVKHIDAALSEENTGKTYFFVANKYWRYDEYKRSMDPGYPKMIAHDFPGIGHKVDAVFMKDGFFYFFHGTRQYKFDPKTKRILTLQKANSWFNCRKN
Sequence of human MMP-9 (P14780 107-707): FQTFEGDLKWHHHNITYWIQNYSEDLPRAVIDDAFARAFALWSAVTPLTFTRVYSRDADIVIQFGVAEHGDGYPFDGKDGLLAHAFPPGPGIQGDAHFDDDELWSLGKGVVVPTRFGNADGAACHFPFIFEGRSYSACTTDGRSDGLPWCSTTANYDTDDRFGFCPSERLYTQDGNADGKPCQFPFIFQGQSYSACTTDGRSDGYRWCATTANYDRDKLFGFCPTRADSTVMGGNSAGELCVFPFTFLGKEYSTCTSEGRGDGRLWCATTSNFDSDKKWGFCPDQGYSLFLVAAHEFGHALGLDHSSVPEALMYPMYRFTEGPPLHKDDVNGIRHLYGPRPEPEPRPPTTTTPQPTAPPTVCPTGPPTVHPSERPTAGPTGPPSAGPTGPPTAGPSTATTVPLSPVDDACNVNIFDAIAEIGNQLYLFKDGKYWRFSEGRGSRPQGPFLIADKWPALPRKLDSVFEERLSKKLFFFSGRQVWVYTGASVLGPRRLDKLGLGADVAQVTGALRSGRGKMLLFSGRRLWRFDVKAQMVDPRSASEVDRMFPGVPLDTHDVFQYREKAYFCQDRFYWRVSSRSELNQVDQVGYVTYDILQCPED
Sequence of human MMP-17 (Q9ULZ9 126-565 limits assumed): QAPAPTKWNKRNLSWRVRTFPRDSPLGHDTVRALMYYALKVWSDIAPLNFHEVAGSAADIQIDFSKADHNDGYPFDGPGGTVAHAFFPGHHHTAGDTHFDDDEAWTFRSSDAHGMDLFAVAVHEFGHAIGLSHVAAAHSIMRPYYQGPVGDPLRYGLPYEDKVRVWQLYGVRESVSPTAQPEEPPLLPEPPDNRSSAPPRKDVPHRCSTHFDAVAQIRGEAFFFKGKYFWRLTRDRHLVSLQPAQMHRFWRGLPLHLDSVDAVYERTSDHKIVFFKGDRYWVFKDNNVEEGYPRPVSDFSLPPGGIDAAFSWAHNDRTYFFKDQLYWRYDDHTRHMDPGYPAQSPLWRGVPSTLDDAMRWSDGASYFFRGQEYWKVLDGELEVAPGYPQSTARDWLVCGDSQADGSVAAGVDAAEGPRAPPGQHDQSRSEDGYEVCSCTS
Sequence of human MMP-8 (P22894 101-467): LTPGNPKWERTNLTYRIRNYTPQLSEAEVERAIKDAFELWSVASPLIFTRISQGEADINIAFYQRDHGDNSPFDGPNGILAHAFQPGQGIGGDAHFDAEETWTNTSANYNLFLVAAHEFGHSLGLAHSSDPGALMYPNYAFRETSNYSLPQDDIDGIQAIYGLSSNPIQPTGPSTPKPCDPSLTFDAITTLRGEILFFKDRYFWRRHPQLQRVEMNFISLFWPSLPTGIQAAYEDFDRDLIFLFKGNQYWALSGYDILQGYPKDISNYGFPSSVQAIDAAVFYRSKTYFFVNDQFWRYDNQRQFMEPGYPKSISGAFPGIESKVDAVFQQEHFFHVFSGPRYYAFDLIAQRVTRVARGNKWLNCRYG

For the compound `Cc1cccn(CC2(c3ccc(Oc4ccccc4F)cc3)NC(=O)NC2=O)c1=O` (stereo not shown) [Compound I-86], the 50% inhibitory concentration (IC50) in assay [1] is greater than 100 µM; in assay [2], 18 µM; in assay [3], greater than 100 µM; in assay [4] it was 23 µM; in assay [5], 27 µM. In assay [6], the inhibition in vivo at 10000 µg/mL was determined as 68%.

Consider `Cc1cccn(CC2(c3ccc(Cc4ccc(F)cc4)cc3)NC(=O)NC2=O)c1=O` (stereo not shown) [Compound I-41, 5-[4-(4-fluorobenzyl)phenyl]-5-[(3-methyl-2-oxopyridin-1(2H)-yl)methyl] imidazolidine-2,4-dione], for which the IC50 in assay [1] is 93 µM; in assay [2], greater than 10 µM; in assay [3] it was greater than 100 µM; in assay [4], 21 µM; in assay [5], 16 µM. Moreover, the inhibition in vivo at 10000 µg/mL in assay [6] is 51%.

Regarding `Cc1cccn(CC2(c3ccc(Oc4ccccc4)cc3)NC(=O)NC2=O)c1=O` (stereo not shown) [Compound I-9, 5-[(3-methyl-2-oxopyridin-1(2H)-yl)methyl]-5-(4-phenoxyphenyl)imidazolidine-2,4-dione], the concentration for half-maximal inhibition (IC50) is greater than 100 µM in assay [1]; 14 µM in assay [2]; greater than 100 µM in assay [3]; 12 µM in assay [4]; 21 µM in assay [5]. In assay [6], the inhibition in vivo at 10000 µg/mL is 66%.

Consider `Cc1cccn(CC2(c3cccc(-c4cccnc4)c3)NC(=O)NC2=O)c1=O` (stereo not shown) [Compound I-62], for which the 50% inhibitory concentration (IC50) was greater than 100 µM in assay [1]; 5 µM in assay [2]; 67 µM in assay [3]; 22 µM in assay [4]; 45 µM in assay [5]. The inhibition in vivo at 10000 µg/mL in assay [6] turned out to be 47%.

Turning to `Cc1cccn(CC2(c3ccc(Cc4ccccc4)cc3)NC(=O)NC2=O)c1=O` (stereo not shown) [Compound I-40, 5-(4-benzylphenyl)-5-[(3-methyl-2-oxopyridin-1(2H)-yl)methyl]imidazolidine-2,4-dione], the IC50 in assay [1] was greater than 100 µM; in assay [2], 16 µM; in assay [3], greater than 100 µM; in assay [4], 22 µM; in assay [5], 30 µM. The inhibition in vivo at 10000 µg/mL in assay [6] turned out to be 63%.

Consider `Cc1cccn(CC2(c3ccc(OCc4ccccc4)cc3)NC(=O)NC2=O)c1=O` (stereo not shown) [Compound I-64], for which the half-maximal inhibitory concentration (IC50) was greater than 100 µM in assay [1]; 6.2 µM in assay [2]; greater than 100 µM in assay [3]; 6 µM in assay [4]; greater than 100 µM in assay [5]. The inhibition in vivo at 10000 µg/mL in assay [6] worked out at 50%.

Take `Cc1cccn(CC2(c3ccc(F)c(F)c3)NC(=O)NC2=O)c1=O` (stereo not shown) [Compound I-10, 5-(3,4-difluorophenyl)-5-[(3-methyl-2-oxopyridin-1(2H)-yl)methyl] imidazolidine-2,4-dione]: the IC50 in assay [1] is greater than 100 µM; in assay [2], 19 µM; in assay [3], greater than 100 µM; in assay [4], 30 µM; in assay [5] it was greater than 100 µM. The inhibition in vivo at 10000 µg/mL in assay [6] turned out to be 46%.

In the case of `Cc1cccn(CC2(c3ccccc3)NC(=O)NC2=O)c1=O` (stereo not shown) [Compound I-1, 5-[(3-methyl-2-oxopyridin-1(2H)-yl)methyl]-5-phenyl-imidazolidine-2,4-dione], the 50% inhibitory concentration (IC50) in assay [1] is greater than 100 µM; in assay [2], 21 µM; in assay [3], greater than 100 µM; in assay [4], 31 µM; in assay [5], greater than 100 µM.

As to `COc1ccc(Cl)cc1C1(Cn2cccc(C)c2=O)NC(=O)NC1=O` (stereo not shown) [Compound I-27, 5-(5-chloro-2-methoxyphenyl)-5-[(3-methyl-2-oxopyridin-1(2H)-yl)methyl]imidazolidine-2,4-dione], the IC50 in assay [1] is greater than 100 µM; in assay [2], 16 µM; in assay [3], greater than 100 µM; in assay [4], 11 µM; in assay [5], 57 µM.

As a reminder, the IC50 is the concentration needed to halve the response being measured.
